Legend:
Chymase [1] = target: T1, Chymase (Homo sapiens, UniProt P23946); assay: Compound was evaluated for its inhibitory activity against human Serine protease chymase
T1 sequence (P23946 whole entry): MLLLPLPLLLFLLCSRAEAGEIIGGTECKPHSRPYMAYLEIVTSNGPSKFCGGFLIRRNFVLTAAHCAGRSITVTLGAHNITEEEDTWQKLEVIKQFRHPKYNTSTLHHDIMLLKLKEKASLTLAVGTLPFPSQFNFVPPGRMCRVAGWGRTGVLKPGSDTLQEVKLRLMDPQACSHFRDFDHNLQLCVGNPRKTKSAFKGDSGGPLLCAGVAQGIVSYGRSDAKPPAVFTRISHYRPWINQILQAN

Chymase [2] = target: T1, Chymase; assay: Compound was evaluated for its inhibitory activity against human chymase

| SMILES | IC50 (Chymase [1]) | IC50 (Chymase [2]) |
| --- | --- | --- |
| COC(/C=C/c1ccccc1)=C1C(=O)C(OC)=C(OC)C1=O | 30 µM | – |
| COC(CCc1ccccc1)=C1C(=O)C=CC1=O | 40 µM | – |
| COC(C)=C1C(=O)C=CC1=O | – | > 1000 µM |
